From patent US20050209256A1, “Novel beta-turn mimetics as calcitonin gene related peptide receptor antagonists” (priority 2004, published 2005)

Biological target: T1, human CGRP receptor (Homo sapiens, UniProt O60894+Q16602)
T1 construct: SK-N-MC cells that endogenously express the human CGRP receptor; endogenous in cells; host or cells: SK-N-MC cells (membrane homogenates)
Assay: Radioligand binding assay, [125I]-CGRP competition on SK-N-MC cell homogenates
Settings: Binding data, [125I]-CGRP 40 pM, room temperature
Experimental: Tissue culture. SK-N-MC cells were grown at 37° C. in 5% CO2 as a monolayer in medium consisting of MEM with Earle's salts and L-glutamine (Gibco) supplemented with 10% fetal bovine serum (Gibco).
Radioligand binding assays. Cells were rinsed twice with phosphate-buffered saline (155 mM NaCl, 3.3 mM Na2HPO4, 1.1 mM KH2PO4, pH 7.4), and incubated for 5-10 min. at 4° C. in hypotonic lysis buffer consisting of 10 mM Tris (pH 7.4) and 5 mM EDTA. Cells were transferred from plates to polypropylene tubes (16×100 mm), homogenized and centrifuged at 32,000×g for 30 min. Pellets were resuspended in buffer consisting of 50 mM Tris (pH 7.4) and 1 mM EDTA, homogenized, and centrifuged again at 32,000×g for 30 min. Pellets were resuspended in 100 mM Tris-Cl pH 7.5, 10 mM MgCl2, 0.1% mammalian protease inhibitor cocktail (Sigma) and stored at −80° C. until needed. On the day of an experiment, homogenates were thawed and homogenized again. Binding of [^125I]-CGRP (NEN) was carried out in buffer containing 50 mM Tris-Cl pH 7.5, 5 mM MgCl2, 0.5% BSA. Homogenates (3.5 μg protein/well) were incubated with competitor compounds (solubilized in 100% DMSO at 100× their final assay concentrations) for one hour at room temperature. Then [^125I]-CGRP was added (40 pM final concentration) and the reaction incubated for one additional hour at room temperature. Assays were stopped by addition of cold wash buffer (20 mM Tris-Cl pH 7.5, 0.1% BSA) immediately followed by filtration over glass fiber filters (Whatman GF/B) previously soaked in 0.5% PEI. Non-specific binding was defined with 100 nM CGRP.

IC50 [nM]	Structure (SMILES)
2580	CC(=O)c1ccc(NC(=O)N2CCC(=O)N3[C@@H](C4CCCCC4)C(=O)N(CCc4ccccc4Cl)C[C@H]23)cc1 [Compound 116, (6S,9aS)-8-[2-(2-Chloro-phenyl)-ethyl]-6-cyclohexyl-4,7-dioxo-hexahydro-pyrazino[1,2-a]pyrimidine-1-carboxylic acid (4-acetyl-phenyl)-amide]
890	CC(=O)c1ccc(NC(=O)N2CCC(=O)N3[C@@H](C4CCCCC4)C(=O)N(CCc4ccc(F)cc4)C[C@H]23)cc1 [Compound 122, (6S,9aS)-6-Cyclohexyl-8-[2-(4-fluoro-phenyl)-ethyl]-4,7-dioxo-hexahydro-pyrazino[1,2-a]pyrimidine-1-carboxylic acid (4-acetyl-phenyl)-amide]
8000	CC(=O)c1ccc(NC(=O)N2CCC(=O)N3[C@@H](C4CCCCC4)C(=O)N(CCc4ccncc4)C[C@H]23)cc1 [Compound 132, (6S,9aS)-6-Cyclohexyl-4,7-dioxo-8-(2-pyridin-4-yl-ethyl)-hexahydro-pyrazino[1,2-a]pyrimidine-1-carboxylic acid (4-acetyl-phenyl)-amide]
7070	CC(=O)c1ccc(NC(=O)N2CCC(=O)N3[C@@H](C4CCCCC4)C(=O)N(CCc4cccc(Cl)c4)C[C@H]23)cc1 [Compound 135, (6S,9aS)-8-[2-(3-Chloro-phenyl)-ethyl]-6-cyclohexyl-4,7-dioxo-hexahydro-pyrazino[1,2-a]pyrimidine-1-carboxylic acid (4-acetyl-phenyl)-amide]
87	CC(=O)c1ccc(NC(=O)N2CCC(=O)N3[C@@H](C4CCCCC4)C(=O)N(CCc4cccs4)C[C@H]23)cc1 [Compound 138, (6S,9aS)-6-Cyclohexyl-4,7-dioxo-8-(2-thiophen-2-yl-ethyl)-hexahydro-pyrazino[1,2-a]pyrimidine-1-carboxylic acid (4-acetyl-phenyl)-amide]
2440	CC(=O)c1ccc(NC(=O)N2CCC(=O)N3[C@@H](C4CCCCC4)C(=O)N(CCc4cccnc4)C[C@H]23)cc1 [Compound 140, (6S,9aS)-6-Cyclohexyl-4,7-dioxo-8-(2-pyridin-3-yl-ethyl)-hexahydro-pyrazino[1,2-a]pyrimidine-1-carboxylic acid (4-acetyl-phenyl)-amide]
7400	CC(=O)c1ccc(OC(=O)N2CCC(=O)N3[C@@H]2CN(CCc2ccccc2)C(=O)[C@@H]3CC2CCCCC2)c(C)c1 [Compound 144, (6S,9aS)-6-Cyclohexylmethyl-4,7-dioxo-8-phenethyl-hexahydro-pyrazino[1,2-a]pyrimidine-1-carboxylic acid 4-acetyl-2-methyl-phenyl ester]
2730	CC(O)c1ccc(NC(=O)N2CCC(=O)N3[C@@H]2CN(CCc2ccccc2)C(=O)[C@@H]3CC2CCCCC2)cc1 (stereo partly drawn) [Compound 145, (6S,9aS)-6-Cyclohexylmethyl-4,7-dioxo-8-phenethyl-hexahydro-pyrazino[1,2-a]pyrimidine-1-carboxylic acid [4-(1-hydroxy-ethyl)-phenyl]-amide]
364	CC(=O)c1ccc(OC(=O)N2CCC(=O)N3[C@@H]2CN(CCc2ccccc2)C(=O)[C@@H]3CC2CCCCC2)cc1C [Compound 146, (6S,9aS)-6-Cyclohexylmethyl-4,7-dioxo-8-phenethyl-hexahydro-pyrazino[1,2-a]pyrimidine-1-carboxylic acid 4-acetyl-3-methyl-phenyl ester]
3900	CC(=O)c1ccc(OC(=O)N2CCC(=O)N3[C@@H](C4CCCCC4)C(=O)N(CCc4ccccc4)C[C@H]23)cc1C [Compound 148, (6S,9aS)-6-Cyclohexyl-4,7-dioxo-8-phenethyl-hexahydro-pyrazino[1,2-a]pyrimidine-1-carboxylic acid 4-acetyl-3-methyl-phenyl ester]
8560	CC(=O)c1ccc(OC(=O)N2CCC(=O)N3[C@@H](C4CCCCC4)C(=O)N(CCc4ccccc4)C[C@H]23)cc1 [Compound 149, (6S,9aS)-6-Cyclohexyl-4,7-dioxo-8-phenethyl-hexahydro-pyrazino[1,2-a]pyrimidine-1-carboxylic acid 4-acetyl-phenyl ester]
1730	O=C1COc2cc(OC(=O)N3CCC(=O)N4[C@@H](C5CCCCC5)C(=O)N(CCc5ccccc5)C[C@H]34)ccc21 [Compound 150, (6S,9aS)-6-Cyclohexyl-4,7-dioxo-8-phenethyl-hexahydro-pyrazino[1,2-a]pyrimidine-1-carboxylic acid 3-oxo-2,3-dihydro-benzofuran-6-yl ester]
39	CC(=O)c1ccc(NC(=O)N2CCC(=O)N3[C@@H](c4ccc(F)c(F)c4)C(=O)N(CCc4cccc(F)c4)C[C@H]23)cc1 [Compound 151, 6-(3,4-Difluoro-phenyl)-8-[2-(3-fluoro-phenyl)-ethyl]-4,7-dioxo-hexahydro-pyrazino [1,2-a]pyrimidine-1-carboxylic acid (4-acetyl-phenyl)-amide]
159	CC(=O)c1ccc(NC(=O)N2CCC(=O)N3[C@@H](c4cccc(F)c4)C(=O)N(CCc4cccc(F)c4)C[C@H]23)cc1 [Compound 152, (6S,9aS)-6-(3-Fluoro-phenyl)-8-[2-(3-fluoro-phenyl)-ethyl]-4,7-dioxo-hexahydro-pyrazino[1,2-a]pyrimidine-1-carboxylic acid (4-acetyl-phenyl)-amide]
320	CC(=O)c1ccc(NC(=O)N2CCC(=O)N3[C@@H](c4ccc(F)cc4F)C(=O)N(CCc4cccc(F)c4)C[C@H]23)cc1 [Compound 153, (6S,9aS)-6-(2,4-Difluoro-phenyl)-8-[2-(3-fluoro-phenyl)-ethyl]-4,7-dioxo-hexahydro-pyrazino[1,2-a]pyrimidine-1-carboxylic acid (4-acetyl-phenyl)-amide]
363	CC(=O)c1ccc(NC(=O)N2CCC(=O)N3[C@@H](c4cccc(F)c4F)C(=O)N(CCc4cccc(F)c4)C[C@H]23)cc1 [Compound 154, (6S,9aS)-6-(2,3-Difluoro-phenyl)-8-[2-(3-fluoro-phenyl)-ethyl]-4,7-dioxo-hexahydro-pyrazino[1,2-a]pyrimidine-1-carboxylic acid (4-acetyl-phenyl)-amide]
